Where a SMILES comes first, the peptide text is derived from it. Bridges are numbered along the chain shown (N, C = ends). [ ]: non-standard residue; d: D form. Phe(ol) = N[C@H](CO)Cc1ccccc1; Aib = CC(C)(N)C(=O)O
How the values were obtained:
[1] = Permeabilization of liposomes filled with a fluorescent reagent; conditions: positive control Alamethicin
Experimental: FIG. 2 presents the ability of the Alvinellacine to create pores in liposomes, herein used to mimic bacterial membranes.
The mechanism of antibacterial activity was determined using liposomes filled with a fluorescent reagent. Liposomes consist of a bi-layer of phospholipids herein used to mimic the bacterial membrane. Permeabilization of the liposomes would result in a release of the internal compound, thus reacting with the medium and producing a fluorescent light that can be measured by spectrometry. The test is carried out with both negative and positive controls. Alamethicin, which is an antibiotic known to create pores in the bacterial membrane, is used as the positive control. The negative control is a solution of liposomes, intended for measurement of background noise (FIG. 2).

[2] = Pore-forming activity: dissipation of a membrane potential in azolectin liposomes
Experimental: The minimal inhibitory concentration (MIC) was determined according to the method of Hancock (Hancock, R. E. W. Sep. 19, 1999, posting date. [Online.] Hancock Laboratory Methods. Department of Microbiology and Immunology, University of British Columbia, British Columbia, Canada. [Antibiotics and Antimicrobial Peptides: MIC Determination by Microtitre Broth Dilution Method, last accessed September 21st.]). Permeabilization of bacterial membranes and pore-forming activity were assayed as previously described (Herbst, R., Ott, C., Jacobs, T., Marti, T., Marciano-Cabral, F., Leippe, M. Pore-forming polypeptides of the pathogenic protozoon Naegleria fowleri. J. Biol. Chem. 2002. 277:22353-22360).
(§1) To investigate the mode of action of Alvinellacine, we used the fluorescent dye SYTOX-Green® and either the Gram-positive Bacillus megaterium or the Gram-negative E. coli (FIG. 3). […] We also measured the pore-forming activity of Alvinellacine to further characterize its mode of action by using a minimalistic membrane system. More precisely, we monitored the dissipation of a membrane potential induced in liposomes composed of azolectin, a crude phospho lipid mixture from soy bean. Pore-forming activity was detected at final concentrations up to 0.5 nM, whereas the positive control Alamethicine gave a signal at 0.1 nM.

Bacillus megaterium = test: Permeabilization of bacterial membranes (SYTOX-Green); format: cell-based; conditions: Gram-positive Bacillus megaterium, pH 7.4, measured 10 minutes after addition
Experimental: (§2) FIG. 3 presents the permeabilization of Gram-positive bacteria (Bacillus megaterium) and Gram-negative bacteria (Escherichia coli) after intended use of the Alvinellacine and two other AMPs (Cecropin originated from pork and Magainin originated from amphibian). These experiences were carried out at pH 7.4. The permeabilization of bacteria was measured 10 minutes after addition of each AMP for B. megaterium, while the same measurement was done after 120 minutes after addition of each AMP for E. coli.
(§3) The minimal inhibitory concentration (MIC) was determined according to the method of Hancock (Hancock, R. E. W. Sep. 19, 1999, posting date. [Online.] Hancock Laboratory Methods. Department of Microbiology and Immunology, University of British Columbia, British Columbia, Canada. [Antibiotics and Antimicrobial Peptides: MIC Determination by Microtitre Broth Dilution Method, last accessed September 21st.]). […]
as §1, with “Pore-forming activity was detected at final concentrations up to 0.5 nM, whereas the positive control Alamethicine gave a signal at 0.1 nM.” left out

E. coli = test: as above; format: cell-based, Escherichia coli; conditions: Gram-negative E. coli, pH 7.4, measured 120 minutes after addition
Experimental: as §2, §3
as §1, with “Pore-forming activity was detected at final concentrations up to 0.5 nM, whereas the positive control Alamethicine gave a signal at 0.1 nM.” left out

Row | SMILES | permeabilization of liposomes (mechanism of antibacterial activity) [1] | final concentration at which pore-forming activity was detected [2] | membrane-permeabilizing activity compared with the two positive controls (Cecropin P1, Magainin II) (Bacillus megaterium) | membrane-permeabilizing activity compared with Cecropin P1 and Magainin II (E. coli)
1 | CSCC[C@@H]1NC(=O)[C@@H]2CSSC[C@H](NC(=O)[C@H](CCCNC(=N)N)NC(=O)[C@H]([C@@H](C)O)NC(=O)[C@H](Cc3ccc(O)cc3)NC(=O)[C@@H](NC(=O)CNC(=O)[C@@H](N)CCCNC(=N)N)CSSC[C@@H](C(=O)N[C@H](C(=O)O)[C@@H](C)O)NC(=O)[C@H](C(C)C)NC(=O)[C@H](CCCNC(=N)N)NC1=O)C(=O)N[C@@H](Cc1c[nH]c3ccccc13)C(=O)N[C@@H](CCCCN)C(=O)N[C@@H](C(C)C)C(=O)NCC(=O)N[C@@H](CCCNC(=N)N)C(=O)N[C@@H](CC(N)=O)C(=O)NCC(=O)N[C@@H](CCCNC(=N)N)C(=O)N[C@@H](C(C)C)C(=O)N2 [Alvinellacine] (H-RGCYTRCWKVGRNGRVCMRVCT-OH; disulfide 3-21, 7-17 (inferred); N-terminus and C-terminus assumed) | permealibilizes the bi-layer of phospholipids | up to 0.5 nM | lower activity | over one order of magnitude higher
2 | CC(=O)NC(C)(C)C(=O)N1CCC[C@H]1C(=O)NC(C)(C)C(=O)N[C@@H](C)C(=O)NC(C)(C)C(=O)N[C@@H](C)C(=O)N[C@@H](CCC(N)=O)C(=O)NC(C)(C)C(=O)N[C@H](C(=O)NC(C)(C)C(=O)NCC(=O)N[C@@H](CC(C)C)C(=O)NC(C)(C)C(=O)N1CCC[C@H]1C(=O)N[C@H](C(=O)NC(C)(C)C(=O)NC(C)(C)C(=O)N[C@@H](CCC(=O)O)C(=O)N[C@@H](CCC(N)=O)C(=O)N[C@H](CO)Cc1ccccc1)C(C)C)C(C)C [Alamethicine, Alamethicin, reference compound] (Ac-[Aib]P[Aib]A[Aib]AQ[Aib]V[Aib]GL[Aib]PV[Aib][Aib]EQ[Phe(ol)]) |  | 0.1 nM |  | 
